Reference: patent US12643899B2, “Antiviral agents, uses thereof and methods for their preparation” (The University of British Columbia, priority 2020, dated 2026)

Key:
[1] = test system: ZIKV; test: Extracellular ZIKV titer in infected brain organoids; format: cell-based, Zika virus; conditions: 1 μM CA, 72 hours
Protocol: FIG. 18 is a plot showing extracellular ZIKV titer for four brain organoid systems after treatment with 1 μM CA for 72 hours in comparison to untreated controls.
FIG. 17 is a schematic showing the general method 20 used in Example 6. Referring to FIG. 17, following growth of the brain organoids in STEMdiff™ media 22 (4 organoids/well), the media was aspirated 24. Then, 500 μL ZIKV at the desired MOI in fresh media was added 26 and the brain organoids incubated at 37° C. for 3 hours with gentle shaking 28. The brain organoids were then washed with 2×1 mL PBS 30, and fresh media and CA or cladoniamide C (CC) added to the desired concentration 32 prior to incubation for the desired time at 37° C. 34. The supernatant was collected and frozen at −86° C. 36 prior to analysis and the brain organoids transferred to an Eppendorf with paraformaldehyde for electron microscopy 38.
FIG. 18 is a plot showing the anti-ZIKV activity of cladoniamide A (incubation with 1 μM CA for 72 hours; 2 biological replicates, each with 4 organoids/well) using four brain organoid systems. There was a greater than 4-log reduction in extracellular ZIKV titer when treated with CA. […] FIGS. 20 and 21 show plots showing the anti-ZIKV activity of CA and CC (incubation with 10 μM CA or CC for 69 hours, MOI 1; 4 technical replicates as there were 4 organoids/[…]).

[2] = test system: ZIKV replicon; test: ZIKV replicon luminescence assay in Huh-7.5 replicon-containing cells; format: cell-based, Zika virus; conditions: Huh-7.5 ZIKV replicon cells, 48 h
Protocol: Error bars represent SD among 3 biological replicates.
Cultured Huh-7.5.1 cells and Huh-7.5 ZIKV replicon-containing cells (Xie 2016) were treated with various concentrations of CA or putative ZIKV replication inhibitor NITD-008 (Deng 2016) for 48 h. Cells were then washed with PBS and ViviRen™ Live Cell Substrate (Promega) was added to a final concentration of 30 μM. Following incubation for 2 min at room temperature, luminescence was measured. Curve fitting was performed in Igor Pro (WaveMetrics) using a sigmoidal fit algorithm (FIG. 5).

[3] = test system: DENV-4; test: DENV-4 intracellular dsRNA (Cellomics) in A549 cells; format: cell-based, dengue virus
Protocol: Error bars represent SD among 3 biological replicates. Cultured A549 cells were treated with the indicated concentrations of CA (1=Mock, 2=0 M, 3=1 μM, 4=5 M, 5=10 M, 6=20 µM) or PF-429242 (7=15 M) for 1 h before being washed with PBS and infected with DENV-2, DENV-3, or DENV-4 at MOI 1.0 for 48 h. Cells were labeled for viral dsRNA with […] then imaged and quantified using the Cellomics ArrayScan™ VTI High Content Screening system.
Viruses. ZIKV: ZIKV strain PRVABC59 (Puerto Rico/2015) (ATCC #VR-1843) was used in these studies, specifically three separate stocks generated in Vero E6 cells with titres of 1.35×10^8 pfu/mL, 1.0×10^7 pfu/mL, and 2.9×10^6 pfu/mL respectively. DENV strains: DENV-2 strain NGC, DENV-3 strain H-87, and DENV-4 strain H-241 were kindly provided by National Microbiology Laboratory, Winnipeg, MB, Canada.
A549 cells were seeded onto Corning tissue culture treated 96 well plates and incubated at 37 degrees Celsius and 5% CO2 for 24 h. CA was diluted in MEM complete media to concentrations of 1 μM, 5 μM, 10 μM, 20 μM, including a 0 μM condition. Diluted CA was added to each well and cells were incubated at 37 degrees Celsius and 5% CO2 for 1 h. After 1 h, cells were washed once with PBS to remove CA and were then infected with DENV-2, -3 or -4 at an MOI of 1. […] Labeled 96 well plates were imaged and quantified using the Cellomics ArrayScan VTI. […]

[4] = test system: ZIKV; test: ZIKV infectivity by semisolid overlay plaque assay after pre-treatment of A549 and U87 MG cells; format: cell-based, Zika virus; conditions: for reduction in ZIKV titer: CA 250 nM 1 h pre-treatment, MOI 1.0, 3 d

## COc1c2n(c3ccccc13)[C@]1(O)C(=O)N(C)C(=O)[C@]1(O)c1c-2[nH]c2ccc(Cl)cc12 [CA, (11S,15R)-7-chloro-11,15-dihydroxy-23-methoxy-13-methyl-3,13,16-triazahexacyclo[14.7.0.0^2,10.0^4,9.0^11,15.0^17,22]tricosa-1(23),2(10),4(9),5,7,17,19,21-octaene-12,14-dione]
[1]
  reduction in extracellular ZIKV titer: greater than 4 log
[2]
  ZIKV replication inhibition: not a ZIKV replication inhibitor
[3]; 1-20 μM, FIG. 8 lower plots
  activity against Dengue virus 4 in vitro: good activity
[3]; Dengue virus, DENV4, DENV-4, intracellular dsRNA (Cellomics)
  IC50: 3.2 µM
[4]; A549 cells
  reduction in ZIKV titer: greater than 4 log
[4]; U87 MG cells
  reduction in ZIKV titer: greater than 4 log
[4]; at 50 nm (so in the source), FIG. 3
  inhibition of production of infectious ZIKV virions: dramatically inhibited
